Data as given in ChEMBL document CHEMBL1154649, “Anti-HBV agents. Part 3: preliminary structure-activity relationships of tetra-acylalisol A derivatives as potent hepatitis B virus inhibitors” (Bioorg Med Chem Lett, 2009).

Legend:
[1] = Cytotoxicity against human HepG2(2.2.15) cells; assay type: cell-based
Hepatitis B virus [2] = assay: Antiviral activity against HBV assessed as inhibition of viral surface antigen secretion; assay type: functional, organism-based
Hepatitis B virus [3] = assay: Antiviral activity against HBV assessed as inhibition of viral early antigen secretion; assay type: functional, organism-based
[4] = Selectivity index, ratio of CC50 for human HepG2(2.2.15) cells to IC50 for HBV surface antigen secretion; assay type: functional
[5] = Selectivity index, ratio of CC50 for human HepG2(2.2.15) cells to IC50 for HBV early antigen secretion; assay type: functional

Row | Structure (SMILES) | CC50 [1] [µM] | IC50 (Hepatitis B virus [2]) [µM] | IC50 (Hepatitis B virus [3]) [µM] | Ratio CC50/IC50 [4] | Ratio CC50/IC50 [5]
1 | C[C@H](C[C@H](OC(=O)[C@H]1CCC(=O)O1)[C@@H](OC(=O)[C@H]1CCC(=O)O1)C(C)(C)OC(=O)[C@@H]1CCC(=O)O1)C1=C2C[C@H](OC(=O)[C@@H]3CCC(=O)O3)[C@H]3[C@@]4(C)CCC(=O)C(C)(C)[C@@H]4CC[C@]3(C)[C@@]2(C)CC1 | > 1600 | > 1600 | > 1600 |  | 
2 | CCCCCCCC(=O)O[C@@H](C[C@@H](C)C1=C2C[C@H](OC(=O)CCCCCCC)[C@H]3[C@@]4(C)CCC(=O)C(C)(C)[C@@H]4CC[C@]3(C)[C@@]2(C)CC1)[C@@H](OC(=O)CCCCCCC)C(C)(C)OC(=O)CCCCCCC | > 1600 | > 1600 | > 1600 |  | 
3 | CCCC(=O)O[C@@H](C[C@@H](C)C1=C2C[C@H](OC(=O)CCC)[C@H]3[C@@]4(C)CCC(=O)C(C)(C)[C@@H]4CC[C@]3(C)[C@@]2(C)CC1)[C@@H](OC(=O)CCC)C(C)(C)OC(=O)CCC | > 1800 | > 1800 | 1800 |  | 
4 | CC(C)CC(=O)O[C@@H](C[C@@H](C)C1=C2C[C@H](OC(=O)CC(C)C)[C@H]3[C@@]4(C)CCC(=O)C(C)(C)[C@@H]4CC[C@]3(C)[C@@]2(C)CC1)[C@@H](OC(=O)CC(C)C)C(C)(C)OC(=O)CC(C)C | > 2000 | > 2000 | > 2000 |  | 
5 | C[C@H](C[C@H](OC(=O)c1ccccc1I)[C@@H](OC(=O)c1ccccc1I)C(C)(C)OC(=O)c1ccccc1I)C1=C2C[C@H](OC(=O)c3ccccc3I)[C@H]3[C@@]4(C)CCC(=O)C(C)(C)[C@@H]4CC[C@]3(C)[C@@]2(C)CC1 | > 1400 | > 1400 | > 1400 |  | 
6 | CCC(=O)O[C@@H](C[C@@H](C)C1=C2C[C@H](OC(=O)CC)[C@H]3[C@@]4(C)CCC(=O)C(C)(C)[C@@H]4CC[C@]3(C)[C@@]2(C)CC1)[C@@H](OC(=O)CC)C(C)(C)OC(=O)CC | > 1900 | 900 | > 1900 | >2.1 | 
7 | C[C@H](C[C@H](OC(=O)c1cccc([N+](=O)[O-])c1)[C@@H](OC(=O)c1cccc([N+](=O)[O-])c1)C(C)(C)OC(=O)c1cccc([N+](=O)[O-])c1)C1=C2C[C@H](OC(=O)c3cccc([N+](=O)[O-])c3)[C@H]3[C@@]4(C)CCC(=O)C(C)(C)[C@@H]4CC[C@]3(C)[C@@]2(C)CC1 | > 1100 | > 1100 | > 1100 |  | 
8 | C[C@H](C[C@H](OC(=O)/C=C/c1ccccc1)[C@@H](OC(=O)/C=C/c1ccccc1)C(C)(C)OC(=O)/C=C/c1ccccc1)C1=C2C[C@H](OC(=O)/C=C/c3ccccc3)[C@H]3[C@@]4(C)CCC(=O)C(C)(C)[C@@H]4CC[C@]3(C)[C@@]2(C)CC1 | > 1200 | > 1200 | > 1200 |  | 
9 | C[C@H](C[C@H](OC(=O)COc1ccccc1)[C@@H](OC(=O)COc1ccccc1)C(C)(C)OC(=O)COc1ccccc1)C1=C2C[C@H](OC(=O)COc3ccccc3)[C@H]3[C@@]4(C)CCC(=O)C(C)(C)[C@@H]4CC[C@]3(C)[C@@]2(C)CC1 | > 1400 | > 1400 | > 1400 |  | 
10 | C[C@H](C[C@H](OC(=O)/C=C/c1ccccc1Cl)[C@@H](OC(=O)/C=C/c1ccccc1Cl)C(C)(C)OC(=O)/C=C/c1ccccc1Cl)C1=C2C[C@H](OC(=O)/C=C/c3ccccc3Cl)[C@H]3[C@@]4(C)CCC(=O)C(C)(C)[C@@H]4CC[C@]3(C)[C@@]2(C)CC1 | > 1400 | > 1400 | > 1400 |  | 
11 | CC(=O)OC(C)(C)[C@H](OC(=O)C(C)C)[C@H](C[C@@H](C)C1=C2C[C@H](OC(=O)C(C)C)[C@H]3[C@@]4(C)CCC(=O)C(C)(C)[C@@H]4CC[C@]3(C)[C@@]2(C)CC1)OC(=O)C(C)C | > 1900 | > 1900 | 1500 |  | >1.3
12 | C[C@H](C[C@H](OC(=O)CN1C(=O)c2ccccc2C1=O)[C@@H](OC(=O)CN1C(=O)c2ccccc2C1=O)C(C)(C)OC(=O)CN1C(=O)c2ccccc2C1=O)C1=C2C[C@H](OC(=O)CN3C(=O)c4ccccc4C3=O)[C@H]3[C@@]4(C)CCC(=O)C(C)(C)[C@@H]4CC[C@]3(C)[C@@]2(C)CC1 | > 1300 | > 1300 | > 1300 |  | 
13 | CCCC(=O)O[C@@H](C[C@@H](C)[C@]12CC[C@@]3(C)[C@@]1(C[C@H](OC(=O)CCC)[C@H]1[C@@]4(C)CCC(=O)C(C)(C)[C@@H]4CC[C@@]13C)O2)[C@@H](OC(=O)CCC)C(C)(C)OC(=O)CCC | > 1900 | > 1900 | > 1900 |  | 
14 | C[C@H](C[C@H](OC(=O)c1ccc(Cl)cc1)[C@@H](OC(=O)c1ccc(Cl)cc1)C(C)(C)OC(=O)c1ccc(Cl)cc1)C1=C2C[C@H](OC(=O)c3ccc(Cl)cc3)[C@H]3[C@@]4(C)CCC(=O)C(C)(C)[C@@H]4CC[C@]3(C)[C@@]2(C)CC1 | > 1400 | 480 | > 1400 | >2.9 | 
15 | CCCCC(=O)O[C@@H](C[C@@H](C)C1=C2C[C@H](OC(=O)CCCC)[C@H]3[C@@]4(C)CCC(=O)C(C)(C)[C@@H]4CC[C@]3(C)[C@@]2(C)CC1)[C@@H](OC(=O)CCCC)C(C)(C)OC(=O)CCCC | > 1400 | > 1400 | > 1400 |  | 
16 | C[C@H](C[C@H](OC(=O)CCC1CCCCC1)[C@@H](OC(=O)CCC1CCCCC1)C(C)(C)OC(=O)CCC1CCCCC1)C1=C2C[C@H](OC(=O)CCC3CCCCC3)[C@H]3[C@@]4(C)CCC(=O)C(C)(C)[C@@H]4CC[C@]3(C)[C@@]2(C)CC1 | > 1700 | > 1700 | > 1700 |  | 
17 | C[C@H](C[C@H](OC(=O)C1CC1)[C@@H](OC(=O)C1CC1)C(C)(C)OC(=O)C1CC1)C1=C2C[C@H](OC(=O)C3CC3)[C@H]3[C@@]4(C)CCC(=O)C(C)(C)[C@@H]4CC[C@]3(C)[C@@]2(C)CC1 | > 2100 | > 2100 | > 2100 |  | 
18 | C[C@H](C[C@H](OC(=O)c1ccccc1)[C@@H](OC(=O)c1ccccc1)C(C)(C)OC(=O)c1ccccc1)C1=C2C[C@H](OC(=O)c3ccccc3)[C@H]3[C@@]4(C)CCC(=O)C(C)(C)[C@@H]4CC[C@]3(C)[C@@]2(C)CC1 | > 1400 | > 1400 | > 1400 |  | 
19 | C[C@H](C[C@H](OC(=O)c1ccc(Cl)cc1Cl)[C@@H](OC(=O)c1ccc(Cl)cc1Cl)C(C)(C)OC(=O)c1ccc(Cl)cc1Cl)C1=C2C[C@H](OC(=O)c3ccc(Cl)cc3Cl)[C@H]3[C@@]4(C)CCC(=O)C(C)(C)[C@@H]4CC[C@]3(C)[C@@]2(C)CC1 | > 1000 | > 1000 | > 1000 |  | 
20 | C[C@H](C[C@H](OC(=O)COc1cc(Cl)c(Cl)cc1Cl)[C@@H](OC(=O)COc1cc(Cl)c(Cl)cc1Cl)C(C)(C)OC(=O)COc1cc(Cl)c(Cl)cc1Cl)C1=C2C[C@H](OC(=O)COc3cc(Cl)c(Cl)cc3Cl)[C@H]3[C@@]4(C)CCC(=O)C(C)(C)[C@@H]4CC[C@]3(C)[C@@]2(C)CC1 | > 1200 | > 1200 | > 1200 |  | 
21 | C[C@H](C[C@H](O[Si](C)(C)C)[C@@H](O[Si](C)(C)C)C(C)(C)O[Si](C)(C)C)C1=C2C[C@H](O[Si](C)(C)C)[C@H]3[C@@]4(C)CCC(=O)C(C)(C)[C@@H]4CC[C@]3(C)[C@@]2(C)CC1 | 51 | 20 | > 51 | 2.5 | <1
22 | COCC(=O)OC(C)(C)[C@H](OC(C)=O)[C@H](C[C@@H](C)C1=C2C[C@H](OC(C)=O)[C@H]3[C@@]4(C)CCC(=O)C(C)(C)[C@@H]4CC[C@]3(C)[C@@]2(C)CC1)OC(C)=O | 920 | 4.4 | 12 | 209 | 77
23 | CC(=O)OC(C)(C)[C@H](OC(=O)c1ccccc1)[C@H](C[C@@H](C)C1=C2C[C@H](OC(=O)c3ccccc3)[C@H]3[C@@]4(C)CCC(=O)C(C)(C)[C@@H]4CC[C@]3(C)[C@@]2(C)CC1)OC(=O)c1ccccc1 | > 1700 | > 1700 | > 1700 |  | 
24 | CCC(=O)O[C@@H](C[C@@H](C)[C@]12CC[C@@]3(C)[C@@]1(C[C@H](OC(=O)CC)[C@H]1[C@@]4(C)CCC(=O)C(C)(C)[C@@H]4CC[C@@]13C)O2)[C@@H](OC(=O)CC)C(C)(C)OC(=O)CC | > 2200 | > 2200 | 1300 |  | >1.7
25 | C[C@H](C[C@H](OC(=O)c1ccccc1)[C@@H](OC(=O)c1ccccc1)C(C)(C)OC(=O)c1ccccc1)[C@]12CC[C@@]3(C)[C@@]1(C[C@H](OC(=O)c1ccccc1)[C@H]1[C@@]4(C)CCC(=O)C(C)(C)[C@@H]4CC[C@@]13C)O2 | > 1700 | > 1700 | 1100 |  | >1.5
26 | CC(=O)OC1=CC[C@@]2(C)[C@@H](CC[C@@]3(C)[C@H]2[C@@H](OC(C)=O)CC2=C([C@H](C)C[C@H](OC(C)=O)[C@@H](OC(C)=O)C(C)(C)OC(C)=O)CC[C@@]23C)C1(C)C | > 2100 | > 2100 | 280 |  | >7.5
